Data taken from US11702417B2, “Compounds for improving mRNA splicing” (The General Hospital Corporation, priority 2015, dated 2023).
Where two headings read alike, the source gives them in different places.

How the values were obtained:
[1] = system: IKBKAP splicing (exon 20 inclusion) in FD fibroblasts GM04663; assay: Secondary assay: IKBKAP splicing analysis by RT-PCR in FD fibroblasts GM04663; type: cell-based; conditions: Homo sapiens, FD fibroblasts GM04663, 24 hours of treatment, read-out: % exon Inclusion Normalized
[2] = system: FD (familial dysautomonia) IKBKAP minigene, exon 20 inclusion, in HEK293T cells; assay: Primary splicing assay (FD IKBKAP minigene, Firefly/Renilla luciferase reporter in HEK293T); type: cell-based, human; conditions: for Emax / EC (maximum kinetin efficacy): Homo sapiens, HEK-293T; for EC (maximum kinetin efficacy): HEK293T, read-out: ECk (compound concentration at which the maximum kinetin efficacy (200 μM) is reached)
[3] = Firefly/Renilla ratio, 24 hours of treatment
[4] = max efficacy in Primary Assay, Firefly/Renilla ratio, kinetin and DMSO as positive and negative controls, 24 hours of treatment, read-out: Emax (%)

SMILES | EC (maximum kinetin efficacy) [2, 3] | Emax [2, 4] | other results
Clc1nc(NCc2nccs2)c2cc[nH]c2n1 [(107)] |  |  | activation at 0.08 µM [1]: 25.6%; activation at 0.8 µM [1]: 93.2%; Emax ([2]; max efficacy, Firefly only, footnote c: Renilla interference/Firefly only, read-out: Emax (%) Firefly only): 184%; ECk, Firefly only ([2]; Renilla interference/Firefly only (footnote c)): 4.58 µM⁻¹
Clc1nc(NCc2ccco2)c2nc(OC3COC3)[nH]c2n1 [(269)] | 1.39 µM | 119% | activation at 0.08 µM [1]: 34.8%; activation at 0.8 µM [1]: 102%
CCCOc1nc2c(NCc3nccs3)nc(Cl)nc2[nH]1 [(271)] | 0.29 µM | 206% | activation at 0.08 µM [1]: 62.2%; activation at 0.8 µM [1]: 107%
OCCOc1nc2c(NCc3ccco3)nc(Cl)nc2[nH]1 [(275)] | 0.75 µM | 230% | activation at 0.08 µM [1]: 37.2%; activation at 0.8 µM [1]: 101%
Clc1nc(NCc2ccco2)c2nn[nH]c2n1 [(285)] | 6.78 µM | 115% | activation at 0.08 µM [1]: 0.06%; activation at 0.8 µM [1]: 1.46%
FC(F)(F)COc1nc2c(NCc3nccs3)nc(Cl)nc2[nH]1 [(302)] | 1.42 µM | 176% | activation at 0.08 µM [1]: 23.3%; activation at 0.8 µM [1]: 90.8%
COCCOc1nc2c(NCc3ccncn3)nc(Cl)nc2[nH]1 [(319)] | 1.56 µM | 204% | activation at 0.08 µM [1]: 14.2%; activation at 0.8 µM [1]: 77.8%
CCOc1nc2c(NCc3ccncn3)nc(Cl)nc2[nH]1 [(320)] | 0.52 µM | 208% | activation at 0.08 µM [1]: 47.1%; activation at 0.8 µM [1]: 103%
Clc1nc(NCc2nccs2)c2nc(OCC3CCO3)[nH]c2n1 (stereo not shown) [(346)] | 1.42 µM | 181% | activation at 0.08 µM [1]: 23.2%; activation at 0.8 µM [1]: 58.6%
FC(F)COc1nc2c(NCc3nccs3)nc(Cl)nc2[nH]1 [(347)] | 0.77 µM | 186% | activation at 0.08 µM [1]: 18.3%; activation at 0.8 µM [1]: 72%
Clc1nc(NCc2nccs2)c2nc(OCc3cscn3)[nH]c2n1 [(348)] | 0.7 µM | 171% | activation at 0.08 µM [1]: 49%; activation at 0.8 µM [1]: 102%
FC(F)COc1nc2c(NCc3ccncn3)nc(Cl)nc2[nH]1 [(349)] | 0.29 µM | 227% | activation at 0.08 µM [1]: 27.1%; activation at 0.8 µM [1]: 95.3%
FC1(F)CC(COc2nc3c(NCc4nccs4)nc(Cl)nc3[nH]2)C1 [(362)] | 0.22 µM | 250% | activation at 0.08 µM [1]: 63.8%; activation at 0.8 µM [1]: 105%
FC(F)(F)CCOc1nc2c(NCc3nccs3)nc(Cl)nc2[nH]1 [(391)] | 1.02 µM | 193% | 
FC(F)(F)COc1nc2c(NCc3cscn3)nc(Cl)nc2[nH]1 [(392)] | 1.9 µM | 134% | 
CCCOc1nc2c(N(CCO)Cc3nccs3)nc(Cl)nc2[nH]1 [(393)] | 7.4 µM | 85.2% | 
O=C1OCCN1CCOc1nc2c(NCc3nccs3)nc(Cl)nc2[nH]1 [(394)] |  | 4.8% | 
FC(F)COc1nc2c(NCc3cscn3)nc(Cl)nc2[nH]1 [(395)] | 1.8 µM | 180% | 
O=C1CCCN1CCOc1nc2c(NCc3ccco3)nc(Cl)nc2[nH]1 [(396)] |  | 38.7% | 
CC(=O)NCCOc1nc2c(NCc3nccs3)nc(Cl)nc2[nH]1 [(397)] |  | 26.3% | 
FC(F)(F)CCOc1nc2c(NCc3ccco3)nc(Cl)nc2[nH]1 [(398)] | 0.94 µM | 176% | 
CC(C)(COc1nc2c(NCc3nccs3)nc(Cl)nc2[nH]1)OCc1ccccc1 [(400)] |  | 11.4% | 
Clc1nc(NCc2nccs2)c2nc(OCCOc3ccccc3)[nH]c2n1 [(401)] |  | 41.2% | 
O=C1CCCN1CCOc1nc2c(NCc3nccs3)nc(Cl)nc2[nH]1 [(402)] |  | 21% | 
CN(Cc1ccco1)c1ncnc2[nH]cnc12 [(403)] |  | 39% | 
c1cc(CNc2ncnc3[nH]cnc23)ccn1 [(404)] |  | 51% | 

SMILES | EC (maximum kinetin efficacy) [2, 3] | Emax [2, 4] | other results
c1nc(NCc2cnn[nH]2)c2nc[nH]c2n1 [(406)] |  | 20% | 
C[C@@H](Nc1ncnc2[nH]cnc12)c1ccco1 [(411)] |  | 55% | 
Clc1cccc(CNc2ncnc3[nH]cnc23)c1 [(415)] |  | 10.9% | 
Clc1ccccc1CNc1[nH]cnc2ncnc1-2 [(426)] |  | 59% | 
c1csc(CNc2[nH]cnc3ncnc2-3)c1 [(438)] |  | 44% | 
COc1ccc(C(=O)Nc2ncnc3[nH]cnc23)cc1 [(441)] |  | 42.8% | 
Fc1ccc(CCNc2ncnc3[nH]cnc23)cc1 [(442)] |  | 58.6% | 
Clc1nc(NCc2cccs2)c2[nH]cnc2n1 [(456)] |  | 52.3% | 
Clc1nc(NCc2ccco2)c2[nH]cnc2n1 [(458)] |  | 73.1% | 
OC[C@H]1O[C@@H](n2cnc3c(NCc4ccco4)ncnc32)[C@H](O)[C@@H]1O [(463)] |  | 90% | 
c1nc(NCc2ccoc2)c2nc[nH]c2n1 [(465)] |  |  | Emax ([2]; max efficacy, value marked (RT-PCR), footnote a: Firefly inhibitor, read-out: Emax (%) (RT-PCR)): 26.3%
Clc1nc2c(c(NCc3ccco3)n1)CCC2 [(466)] | 3.66 µM | 221% | 
CC(=O)N1CC(Oc2nc3c(NCc4nccs4)nc(Cl)nc3[nH]2)C1 [(469)] |  | 13.3% | 
Cn1c(=O)[nH]c2nc(Cl)nc(NCc3nccs3)c21 [(470)] |  | 76.8% | 
CC(C)(C)OC(=O)N1CC(COc2nc3c(NCc4nccs4)nc(Cl)nc3[nH]2)C1 [(471)] | 1.63 µM | 149% | 
Clc1nc(NCc2ccco2)c2nc(OC[C@@H]3CCOC3)[nH]c2n1 [(472)] | 1.16 µM | 151% | 
Clc1nc(NCc2nccs2)c2nc(OC[C@@H]3CCOC3)[nH]c2n1 [(473)] | 2.1 µM | 130% | 
Clc1nc(NCc2ccco2)c2nc(OCC#Cc3ccccc3)[nH]c2n1 [(474)] |  | 24.9% | 
Clc1nc(NCc2nccs2)c2nc(OCC#Cc3ccccc3)[nH]c2n1 [(476)] |  | 25.5% | 
CC(C)COc1nc2c(NCc3ccco3)nc(Cl)nc2[nH]1 [(477)] | 2.28 µM | 108% | 
CC(C)(C)COc1nc2c(NCc3ccco3)nc(Cl)nc2[nH]1 [(478)] |  | 84.1% | 
CC#CCOc1nc2c(NCc3nccs3)nc(Cl)nc2[nH]1 [(479)] | 3.23 µM | 144% | 
Clc1nc(NCc2ccco2)c2nc(OCCOc3ccccc3)[nH]c2n1 [(481)] | 4.14 µM | 93.4% | 
CC(C)(C)OCCOc1nc2c(NCc3nccs3)nc(Cl)nc2[nH]1 [(482)] | 11.1 µM | 99.1% | 
Clc1nc(NCc2nccs2)c2nc(OCc3ccccc3)[nH]c2n1 [(483)] | 1.26 µM | 138% | 
CC#CCOc1nc2c(NCc3ccco3)nc(Cl)nc2[nH]1 [(486)] | 2.57 µM | 150% | 

SMILES | EC (maximum kinetin efficacy) [2, 3] | Emax [2, 4] | other results
Fc1cc(CNc2nc(Cl)nc3[nH]ccc23)ccn1 [(487)] | 6.1 µM | 114% | 
FC1(F)CC(COc2nc3c(NCc4cscn4)nc(Cl)nc3[nH]2)C1 [(488)] | 1.02 µM | 206% | 
Clc1nc(NCc2ccco2)c2nc(OCCC3CC3)[nH]c2n1 [(489)] | 1.21 µM | 131% | 
Clc1nc(NCc2ccco2)c2nc(OCc3ccccc3)[nH]c2n1 [(490)] | 0.62 µM | 176% | 
CC(C)COc1nc2c(NCc3nccs3)nc(Cl)nc2[nH]1 [(491)] | 0.48 µM | 155% | 
Clc1nc(NCc2ccco2)c2nc(OCCc3ccccc3)[nH]c2n1 [(492)] |  | 54.5% | 
Clc1nc(NCc2cscn2)c2nc(OCC3CCO3)[nH]c2n1 (stereo not shown) [(493)] | 3.05 µM | 168% | 
Fc1cccc(CNc2nc(Cl)nc3[nH]ccc23)n1 [(494)] |  | 14.1% | 
Fc1cccnc1CNc1nc(Cl)nc2[nH]ccc12 [(495)] |  | 13.9% | 
CC(F)(F)COc1nc2c(NCc3cscn3)nc(Cl)nc2[nH]1 [(496)] | 1.03 µM | 233% | 
Clc1nc(NCc2cscn2)c2nc(OC3COC3)[nH]c2n1 [(497)] | 5.56 µM | 120% | 
Clc1nc(NCc2csnn2)c2cc[nH]c2n1 [(498)] |  | 37.7% | 
FC(F)(F)CCOc1nc2c(NCc3cscn3)nc(Cl)nc2[nH]1 [(499)] | 1.67 µM | 156% | 
Clc1nc(NCc2nccs2)c2nc(OCc3ccccn3)[nH]c2n1 [(500)] | 3 µM | 141% | 
Clc1nc(NCc2nncs2)c2cc[nH]c2n1 [(501)] |  | 18.1% | 
Clc1nc2c(c(NCc3nccs3)n1)COC2 [(502)] |  | 28% | 
Clc1nc2c(c(NCc3ccco3)n1)COC2 [(503)] |  | 27.2% | 
COC(=O)COc1nc2c(NCc3nccs3)nc(Cl)nc2[nH]1 [(504)] |  | 80% | 
Clc1nc(NCc2nccs2)c2nc(OCc3ncco3)[nH]c2n1 [(505)] | 8.07 µM | 140% | 
Clc1nc(NCc2nccs2)c2nc(OCc3cccnc3)[nH]c2n1 [(506)] | 1.14 µM | 144% | 
Clc1nc(NCc2nccs2)c2nc(OCc3ccncc3)[nH]c2n1 [(507)] | 0.77 µM | 167% | 
CC(C)(C)OC(=O)N1Cc2nc(Cl)nc(NCc3ccco3)c2C1 [(508)] |  | 80% | 
CC(C)(C)OC(=O)N1Cc2nc(Cl)nc(NCc3nccs3)c2C1 [(509)] |  | 40.8% | 
CC(=O)N1Cc2nc(Cl)nc(NCc3nccs3)c2C1 [(510)] |  | 20% | 
O=C(O)COc1nc2c(NCc3nccs3)nc(Cl)nc2[nH]1 [(511)] |  | 35.1% | 
c1nc2nc[nH]c(NC3CCCCCC3)c-2n1 [(512)] |  | 43.7% | 
